Values joined by “and” are separate entries in the source; they are usually repeats but may differ in a detail not shown here. Identical values can stand only once.
Key:
female ZDF rats = assay: Serum triglycerides and cholesterol in female ZDF rats, Compound 1 and Compound 2 at 10 mg/kg; type: in vivo, rat; conditions: 10 mg/kg oral
Description: A similar experiment to that described above was performed. Briefly, female ZDF rats (12 weeks old) were fed either a PM 5008 diet or a GMI 13004 diet. Control vehicle consisted of 2% DMSO and 98% corn oil. Compound 1 and Compound 2 were administered at a dosage of 10 mg/kg body weight. Dosings were administered at approximately 8 a.m. Serum was collected on the first day of dosing at approximately 8 a.m. (Day 1, 0 hour) and 2 p.m. (Day 1, 6 hour); the fourth day of dosing at approximately 8 a.m. (Day 4, 0 hour); and the last day of dosing at approximately 8 a.m. (Day 7, 0 hour) and 2 p.m. (Day 7, 6 hour). The levels of triglycerides and cholesterol in the serum samples were measured. The results are shown in Table 2 and are illustrated graphically in FIGS. 3A and 3B.

male SJL mice [1] = assay: Serum triglycerides (STG) in male SJL mice; type: in vivo, mouse
Description: Male SJL mice were dosed orally with vehicle, Compound 1 (an RAR pan-antagonist), or Compound 3 (an RARE antagonist) for 4 consecutive days. The structure and synthesis of Compound 1 is described in Example I. The structure of Compound 3 is shown below, and the compound was synthesized using routine methods:
The test compounds were dissolved in corn oil and given at a dosage/volume of 20 mg/5 ml/kg.
On day 3, serum triglycerides (STG) were determined from samples collected at 7 a.m.
(§1) On day 4, animals were fasted after dosing, starting at 8 a.m. Following 6 hours of fasting, blood samples were collected prior to intravenous injection of WR-1339 at 100 mg/5 ml/kg. Additional serum samples were collected at 1 and 2 hours after WR-1339 injection. WR-1339 is a detergent that inactivates lipoprotein lipase and thus prevents the removal of triglycerides from circulation. By measuring the increase of STG after WR-1339 administration in fasted animals, the hepatic triglyceride (HTG) output during fasting can be estimated.
(§2) Due to the lack of effect of Compound 3 at 20 mg/kg, the dose was increased to 100 mg/kg in the same set of mice. STG was determined on day 3 prior to dosing (Day 3, 8 a.m.). […] To ensure that Compound 3 would be bioavailable, Compound 3 was dissolved in DMSO and given by intraperitoneal injections, once at 4 p.m. on day 3 and once at 8 a.m. on day 4, at a dosage of 100 mg/kg/injection. Administration of WR-1339 and blood collections on day 4 were similarly conducted as described above.

male SJL mice [2] = assay: Hepatic triglyceride (HTG) output after WR-1339 injection in fasted male SJL mice; type: in vivo, mouse
Description: as §1, §2

[3] = test system: chronic hypertriglyceridemic patients; conditions: de Man et al. 2000; cited from earlier work
[4] = GMI 13004 diet, group mean of 5 rats, first day of dosing, 2 p.m.
[5] = GMI 13004 diet, group mean of 5 rats, first day of dosing, about 8 a.m. (baseline)
[6] = GMI 13004 diet, group mean of 5 rats, fourth day of dosing, 8 a.m.
[7] = GMI 13004 diet, group mean of 5 rats, last day of dosing, 2 p.m.
[8] = GMI 13004 diet, group mean of 5 rats, last day of dosing, 8 a.m.
[9] = GMI 13004 diet, individual animals, first day of dosing, 2 p.m.
[10] = GMI 13004 diet, individual animals, first day of dosing, about 8 a.m. (baseline)
[11] = GMI 13004 diet, individual animals, fourth day of dosing, 8 a.m.
[12] = GMI 13004 diet, individual animals, last day of dosing, 2 p.m.
[13] = GMI 13004 diet, individual animals, last day of dosing, 8 a.m.

Cc1ccc(C2=CC(C)(C)Oc3c(Br)cc(C(=O)Nc4ccc(C(=O)O)c(F)c4)cc32)cc1 [Compound 2]
effect on lowering serum cholesterol (female ZDF rats): more modest effect
serum triglycerides as % of pre-treatment levels (female ZDF rats): about 40%
Cholesterol day 1, 6 hr, Mean (female ZDF rats; [4]): 106
Triglycerides day 1, 6 hr, Mean (female ZDF rats; [4]): 1321
Cholesterol day 1, 0 hr, Mean (female ZDF rats; [5]): 119
Triglycerides day 1, 0 hr, Mean (female ZDF rats; [5]): 1471
Cholesterol day 4, 0 hr, Mean (female ZDF rats; [6]): 77
Triglycerides day 4, 0 hr, Mean (female ZDF rats; [6]): 571
Cholesterol day 7, 6 hr, Mean (female ZDF rats; [7]): 62
Triglycerides day 7, 6 hr, Mean (female ZDF rats; [7]): 602
Cholesterol day 7, 0 hr, Mean (female ZDF rats; [8]): 66
Triglycerides day 7, 0 hr, Mean (female ZDF rats; [8]): 560
Cholesterol day 1, 6 hr (female ZDF rats; [9]): 114 and 84 and 90 and 108 and 132
Triglycerides day 1, 6 hr (female ZDF rats; [9]): 1260 and 1338 and 1140 and 1344 and 1524
Cholesterol day 1, 0 hr (female ZDF rats; [10]): 120 (2×) and 96 (2×) and 162
Triglycerides day 1, 0 hr (female ZDF rats; [10]): 1464 and 1194 and 1284 and 1668 and 1746
Cholesterol day 4, 0 hr (female ZDF rats; [11]): 84 and 66 and 72 (2×) and 90
Triglycerides day 4, 0 hr (female ZDF rats; [11]): 642 and 804 and 210 and 630 and 570
Cholesterol day 7, 6 hr (female ZDF rats; [12]): 72 and 60 (2×) and 54 and 66
Triglycerides day 7, 6 hr (female ZDF rats; [12]): 402 and 600 and 360 and 738 and 912
Cholesterol day 7, 0 hr (female ZDF rats; [13]): 78 (2×) and 60 (2×) and 54
Triglycerides day 7, 0 hr (female ZDF rats; [13]): 294 and 588 and 474 and 726 and 720

Cc1ccc(C2=CCC(C)(C)c3cc(O)c(C(=O)Nc4ccc(C(=O)O)c(F)c4)cc32)cc1 [Compound 3]
non-fasting STG (Day 3, 8 a.m.) (male SJL mice [1]; 20 mg/kg oral daily): not observed
STG 16 hours after a single intraperitoneal dose (Day 4, 8 a.m.) (male SJL mice [1]; 100 mg/kg intraperitoneal in DMSO): clear lowering of STG
STG on day 3 prior to dosing (Day 3, 8 a.m.) (male SJL mice [1]; 100 mg/kg oral): no lowering of STG was observed
STG after fasting (Day 4, 2 p.m.) (male SJL mice [1]; 100 mg/kg/injection intraperitoneal): effect disappeared after fasting
HTG output after WR-1339 injection (male SJL mice [2]; 20 mg/kg oral daily for 4 days, fasted): not observed
HTG output (male SJL mice [2]; 100 mg/kg/injection intraperitoneal, WR-1339, fasted): reduced

CC(C)c1c(C(=O)Nc2ccccc2)c(-c2ccccc2)c(-c2ccc(F)cc2)n1CC[C@@H](O)C[C@@H](O)CC(=O)O [atorvastatin]
effect on impaired vasodilation [3]: reverse the impaired vasodilation

— patent publication US7105566B2, “Methods of treatment during vascular procedures” (Allergan, Inc., priority 2002, dated 2006)
